Series [1] has as its system metastatic lung cancer cells. The series can be described thus: Alamar Blue proliferation assay, average over metastatic luciferase-expressing lung cancer cell lines. It is filed as cell-based, human. The note with it: average of 5 metastatic luc lung cancer cell lines; vs negative control miRNA (=100%); 72 hours. The text has this: The inventors assessed the therapeutic effect of hsa-miR-147 for lung cancer by using 12 individual lung cancer cell lines. To measure cellular proliferation of lung cancer cells, the following parental non-small cell lung cancer (NSCLC) cells were used: cells derived from lung adenocarcinoma (A549, H1299, H522, H838, Calu-3, HCC827, HCC2935), cells derived from lung squamous cell carcinoma (H520, H226), cells derived from lung adenosquamous cell carcinoma (H596), cells derived from lung bronchioalveolar carcinoma (H1650), and cells derived from lung large cell carcinoma (H460). In addition to these parental cell lines, highly metastatic NSCLC cells were used that stably express the firefly luciferase gene: A549-luc, H460-luc, HCC827-luc, H1650-luc, H441-luc. Unlike the parental cell lines, these metastatic cells readily migrate to distant sites of the test animal and form metastases upon subcutaneous, orthotopic, or intravenous injection. Synthetic hsa-miR-147 or negative control miRNA was delivered via lipid-based transfection into A549, H1299, H522, H838, Calu-3, HCC827, HCC2935, H520, H596, H1650, H460, A549-luc, H460-luc, HCC827-luc, H1650-luc, H441-luc cells and via electroporation into H226 cells. […]

Series [2] deals with PC3 human prostate cancer cells. The series can be described thus: Long-term growth curve with repeated electroporation, PC3. Format: cell-based. The following applies: 1.6 μM electroporated, repeated on days 7 and 14; by day 21. Here is the method:
To evaluate the therapeutic activity of hsa-miR-147 over an extended period of time, the inventors conducted growth curve experiments in the presence of miRNA for up to 21 days. Since in vitro transfections of naked interfering RNAs, such as synthetic miRNA, are transient by nature and compromised by the dilution of the oligo during ongoing cell divisions, miRNA was administered at multiple time points (Bartlett et al., 2006; Bartlett et al., 2007). To accommodate miRNA delivery into a large quantity of cells, the inventors employed the electroporation method to delivery hsa-miR-147 or negative control miRNA into PC3 and Du145 human prostate cancer cells. Briefly, 1×10^6 PC3 cells and 0.5×10^6 Du145 cells were electroporated with 1.6 μM hsa-miR-147 or negative control using the BioRad Gene Pulser Xcell™ instrument (BioRad Laboratories Inc., Hercules, Calif., USA), seeded and propagated in regular growth medium. Experiments with PC3 and Du145 cells were carried out in triplicates. When the control cells reached confluence (days 7 and 14), cells were harvested, counted and electroporated again with the respective miRNAs. […] The population doubling was calculated from these electroporation events using the formula PD=ln(Nf/N0)/ln2 and adjusting for the fact that approximately 72% of newly seeded cells adhere to the plate. […]

Regarding “hsa-miR-147: Synthetic pre-miR-147 (Ambion AM17100; Dharmacon in vivo); mature sequence GUGUGUGGAAAUGCUUCUGC, MIMAT0000251, SEQ ID NO:114 (synthetic pre-miR (Ambion/Dharmacon), chemistry not given here; listed as Homo sapiens)”, the “inhibition of cell growth, on average” value in series [1] amounted to 42%. Also, the “fate of PC3 cells in long-term growth curve” value in series [2] is “eliminated”.
